{"source": "patent US11926837B2", "about": "“Compositions and methods for controlling plant growth” (PLANTARC BIO LTD., priority 2019, dated 2024)", "molecules": {"B1": {"name": "GmHPPD: the native G. max HPPD (Accession number: ABQ96868) (protein)", "chain": "MPIPCNEIQAQAQAQAQPGFKLVGFKNFVRTNPKSDRFQVNRFHHIEFWCTDATNASRRFSWGLGMPIVAKSDLSTGNQIHASYLLRSGDLSFLFSAPYSPSLSAGSSAASSASIPSFDAATCLAFAAKHGFGVRAIALEVADAEAAFSASVAKGAEPASPPVLVDDRTGFAEVRLYGDVVLRYVSYKDAAPQAPHADPSRWFLPGFEAAASSSSFPELDYGIRRLDHAVGNVPELAPAVRYLKGFSGFHEFAEFTAEDVGTSESGLNSVVLANNSETVLLPLNEPVYGTKRKSQIETYLEHNEGAGVQHLALVTHDIFTTLREMRKRSFLGGFEFMPSPPPTYYANLHNRAADVLTVDQIKQCEELGILVDRDDQGTLLQIFTKPVGDRPTIFIXIIQRIGCMVEDEEGKVYQKGACGGFGKGNFSELFKSIEEYEKTLEAKRTA", "modifications": "not fully specified; X: residue not identified in the source"}, "B2": {"name": "AtHPPD: HPPD from Arabidopsis thaliana hppd cDNA (accession no. AF047834) (protein, UniProt P93836 1-445, looked up)", "4-hydroxyphenylpyruvate …": "MGHQNAAVSENQNHDDGAASSPGFKLVGFSKFVRKNPKSDKFKVKRFHHIEFWCGDATNVARRFSWGLGMRFSAKSDLSTGNMVHASYLLTSGDLRFLFTAPYSPSLSAGEIKPTTTASIPSFDHGSCRSFFSSHGLGVRAVAIEVEDAESAFSISVANGAIPSSPPIVLNEAVTIAEVKLYGDVVLRYVSYKAEDTEKSEFLPGFERVEDASSFPLDYGIRRLDHAVGNVPELGPALTYVAGFTGFHQFAEFTADDVGTAESGLNSAVLASNDEMVLLPINEPVHGTKRKSQIQTYLEHNEGAGLQHLALMSEDIFRTLREMRKRSSIGGFDFMPSPPPTYYQNLKKRVGDVLSDDQIKECEELGILVDRDDQGTLLQIFTKPLGDRPTIFIEIIQRVGCMMKDEEGKAYQSGGCGGFGKGNFSELFKSIEEYEKTLEAKQLVG"}}, "key": {"[1]": {"tested_on": "Arabidopsis plants transformed with Trichoderma spp-HPPD gene", "assay": "In-planta screen of plants transformed with fungal HPPD", "assay_type": "in vivo", "protocol": "The hppd coding region was cloned into pPA35H binary vector under the control of the CaMV35S constitutive promoter and HSP terminator and was used to transform Arabidopsis plants using agrobacterium according to the dipping flower method, as essentially described in WO 2018/178975. […] 3-4 days post germination, plants were treated with 0.1% and 0.05% Tembotrione (Laudis (Bayer)). HPPD resistant plants were detected one-week post germination."}, "[2]": {"tested_on": "Arabidopsis control (wt, non-transformed) plants", "assay": "In-planta screen, control (non-transformed, wt) plants", "assay_type": "in vivo", "excerpt": "The hppd coding region was cloned into pPA35H binary vector under the control of the CaMV35S constitutive promoter and HSP terminator and was used to transform Arabidopsis plants using agrobacterium according to the dipping flower method, as essentially described in WO 2018/178975. T1 generation transformed seeds were germinated on Basta selection (Bayer) according to manufacturer instructions. […] HPPD resistant plants were detected one-week post germination."}, "[3]": {"tested_on": "HPPD derived from the novel Trichoderma fungus (TP)", "assay": "Bacterial HPPD-activity assay, E. coli BL21 (DE3) transformed with Trichoderma HPPD, brown halo", "assay_type": "cell-based, Trichoderma spp.", "conditions": "E. coli BL21 (DE3) on agar screen plates, 25° C., 4 days", "quoted_text": "(§1) E. coli BL21 (DE3) were transformed with the expression vector and monitored for HPPD activity using a colorimetric method as essentially explained in Rocaboy-Faquet. E. et al. (DOI: 10.1007/s00253-014-5793-5) with two minor modifications, namely: 1) The transformed bacteria were inoculated on an agar based medium instead of a liquid medium; 2) The screen was performed at 25° C. for 4 days.\n(§2) The screen media was prepared with a concentration gradient of HPPD inhibitors at the indicated concentrations and the transformed bacteria were inoculated on the screening agar plates. HPPD activity was detected by a brown halo resulting from the HPPD-mediated conversion of p-hydroxyphenylpyruvate (HPP) into homogentisate (HGA), which later is oxidized to a melanin-like pigment. Tembotrione resistance of the transformed bacteria was compared to that of plates inoculated with E. coli BL21 (DE3) transformed with either an empty pET16 vector or a pET16 vector transformed with Arabidopsis thaliana hppd cDNA (accession no. AF047834)."}, "Camelina plants": {"tested_on": "Camelina plants", "assay": "In-planta screen of soy HPPD mutants", "assay_type": "in vivo", "conditions": "T1 Camelina, Laudis (Tembotrione) 0.075% three days post seeding, images 19 days post treatment", "protocol": "T1 generation transformed seeds of Camelina plants with the Soy HPPD (GmHPPD) mutated gene as compared to wt. Plant were treated with Laudis (Tembotrione) 0.075% three days post seeding. EGFP transformed plants were used as control. Images taken 19 days post treatment. The following were tested: • GmHPPD—SEQ ID NO: 118 the native G. max HPPD (Accession number: ABQ96868) • GmHPPD.1=GmHPPD (SEQ ID NO: 118) mutated to substitute its motif 1 with motif 1 of SEQ ID NO: 1—i.e. to include amino acid sequences set forth in SEQ ID NO: 9-10 or 38; • GmHPPD.2=GmHPPD (SEQ ID NO: 118) mutated to substitute its motif 6.2 (SEQ ID NO: 68) first Y with motif 6.2 of SEQ ID NO: 1 (SEQ ID NO: 20)—i.e. to include the mutation Tyr185Phe to include SEQ ID NO: 157; • GmHPPD.3=GmHPPD (SEQ ID NO: 118) mutated to substitute its motif 7.2 (SEQ ID NO: 70) first Y with motif 7.2 of SEQ ID NO: 1 (SEQ ID NO: 22)—i.e. to include the mutation Tyr243Phe; • GmHPPD.4=GmHPPD (SEQ ID NO: 118) mutated to substitute its motif 2.1 (SEQ ID NO: 57) with motif 2.1 of SEQ ID NO: 1 (SEQ ID NO: 11)—i.e. to include the mutation Ala254Trp to include SEQ ID NO: 129; • GmHPPD.5=GmHPPD (SEQ ID NO: 118) mutated to substitute its motif 3.1 with motif 3.1 of SEQ ID NO: 1—i.e. to include the replacement mutations 338-MPSPPP-343 to INVPG."}, "G. max HPPD": {"tested_on": "G. max HPPD", "assay": "HPPD-activity screen of soy HPPD mutants in E. coli BL21 (DE3)", "assay_type": "cell-based", "excerpt": "A brown halo is indicative of HPPD activity • GmHPPD SEQ ID NO: 118 ([…] […] […] […] […] […] […] AADVLTVDQIKQCEELGILVDRDDQGTLLQIFTKPVGDRPTIFIXIIQRIGC […]), the native G. max HPPD (Accession number: ABQ96868) • GmHPPD.1=GmHPPD (SEQ ID NO: 118) mutated to substitute its motif 1 with motif 1 of SEQ ID NO: 1—i.e. to include amino acid sequences SEQ ID NO: 9-10 or 38; • GmHPPD.2=GmHPPD (SEQ ID NO: 118) mutated to substitute its motif 6.2 (SEQ ID NO: 68) first Y with motif 6.2 of SEQ ID NO: 1 (SEQ ID NO: 20)—i.e. to include the mutation Tyr185Phe to include SEQ ID NO: 157; • GmHPPD.4=GmHPPD (SEQ ID NO: 118) mutated to substitute its motif 2.1 (SEQ ID NO: 57) with motif 2.1 of SEQ ID NO: 1 (SEQ ID NO: 11)—i.e. to include the mutation Ala254Trp to include SEQ ID NO: 129."}, "[4]": {"molecular_target": "T1, Arabidopsis thaliana HPPD (AtHPPD) (Arabidopsis thaliana, UniProt P93836)", "T1 construct": "expressed in transfected cells; host or cells: E. coli BL21 (DE3), pET16 vector", "T1 sequence (P93836 1-445)": "B2 4-hydroxyphenylpyruvate …", "assay": "Bacterial HPPD-activity assay, E. coli BL21 (DE3) transformed with Arabidopsis thaliana hppd cDNA", "assay_type": "cell-based", "conditions": "E. coli BL21 (DE3) on agar plates with concentration gradient of HPPD inhibitors, 25° C., 4 days", "quoted_text": "as §1, §2"}, "[5]": {"conditions": "T2 generation, Tembotrione x1=2500 and x0.2=500 μg/ml, Mesotrione x1=50 μg/ml, Topramezon x1=150 and x0.2=30 μg/ml, Isoxaflutole x1=50 μg/ml"}, "[6]": {"conditions": "control (wt plants), Tembotrione 2500 and 500 μg/ml, Mesotrione 50 μg/ml, Topramezon 150 and 30 μg/ml, Isoxaflutole 50 μg/ml"}}}
{"molecule": "CS(=O)(=O)c1cc(C(F)(F)F)ccc1C(=O)c1cnoc1C1CC1", "note": "[Isoxaflutole, isoxaflutole]", "values": [{"measurement": "plant growth in the presence of the herbicide", "setting": "[1]; [5]", "result": "enabled growth"}, {"measurement": "plant growth in the presence of the herbicide", "setting": "[2]; [6]", "result": "no plant growth or an acute growth inhibition and leaf bleaching"}]}
{"molecule": "CS(=O)(=O)c1ccc(C(=O)C2C(=O)CCCC2=O)c([N+](=O)[O-])c1", "note": "[Mesotrione, mesotrione]", "values": [{"measurement": "plant growth in the presence of the herbicide", "setting": "[1]; [5]", "result": "enabled growth"}, {"measurement": "plant growth in the presence of the herbicide", "setting": "[2]; [6]", "result": "no plant growth or an acute growth inhibition and leaf bleaching"}]}
{"molecule": "Cc1nn(C)c(OCC(=O)c2ccccc2)c1C(=O)c1ccc(Cl)cc1Cl", "note": "[Pyrazoxyfen, pyrazoxyfen]", "values": [{"measurement": "HPPD inhibitor concentration on plates at which HPPD activity (brown halo) was still detected", "setting": "[3]", "result": "≤ 1250", "unit": "µg/mL"}]}
{"molecule": "CS(=O)(=O)c1ccc(C(=O)C2C(=O)CCCC2=O)c(Cl)c1COCC(F)(F)F", "note": "[Tembotrione, tembotrione]", "values": [{"measurement": "plant growth in the presence of the herbicide", "setting": "[1]; T1 plants on Basta selection, 0.1% and 0.05% Tembotrione (Laudis) 3-4 days post germination", "result": "enabled growth"}, {"measurement": "plant growth in the presence of the herbicide", "setting": "[1]; [5]", "result": "enabled growth"}, {"measurement": "plant growth in the presence of the herbicide", "setting": "[2]; control (non-transformed), 0.1% and 0.05% Tembotrione (Laudis)", "result": "no plant growth"}, {"measurement": "plant growth in the presence of the herbicide", "setting": "[2]; [6]", "result": "no plant growth or an acute growth inhibition and leaf bleaching"}]}
{"molecule": "Cc1c(C(=O)c2cnn(C)c2O)ccc(S(C)(=O)=O)c1C1=NOCC1", "note": "[Topramezone, topramezone]", "values": [{"measurement": "plant growth in the presence of the herbicide", "setting": "[1]; [5]", "result": "enabled growth"}, {"measurement": "plant growth in the presence of the herbicide", "setting": "[2]; [6]", "result": "no plant growth or an acute growth inhibition and leaf bleaching"}]}
{"molecule": "B1", "values": [{"measurement": "herbicide tolerance of transformed plants", "setting": "Camelina plants", "result": "highly damaged"}, {"measurement": "HPPD enzymatic activity (brown halo)", "setting": "G. max HPPD; 5 μM tembotrione", "result": "only minor enzymatic activity"}, {"measurement": "HPPD enzymatic activity (brown halo)", "setting": "G. max HPPD; 10 μM tembotrione", "result": "essentially no enzymatic activity"}]}
{"molecule": "B2", "values": [{"measurement": "HPPD activity (brown halo) on HPPD inhibitor plates", "setting": "[4]", "result": "poor HPPD activity if at all"}]}
